From US10519211B2, “Compounds as peptidic GLP1/glucagon/GIP receptor agonists” (SANOFI, priority 2016, dated 2019)
Numbered stars: 1 amine (or outer) side, 2 acyl side, 3 side chain; on linkers, the order of the positions; unused ones are H or OH. Square brackets hold non-standard residues; d marks the D form. Side chains are listed from the residue outwards. Peptide text beside a SMILES is read from it. * marks the point of attachment. γGlu = O=C(O)[C@H](CCC(=O)[*:2])N[*:1]; Palmitoyl = CCCCCCCCCCCCCCCC(=O)*; Aib = CC(C)(N)C(=O)O

Legend:
[1] = Thioflavin T (ThT) assay for physical stability (fibrillation); format: physicochemical; details: 3 mg/ml, 100 mM acetate pH 4.5 with m-cresol, shaking at 37° C.
Procedure, shortened: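 Peptide at 3 mg/ml with 100 μM ThT in 100 mM acetate pH 4.5 with m-cresol, stressed at 37° C by cycles of 10 s shaking at 960 rpm and 50 s rest. Fluorescence read every 20 minutes, eight replicates; lag time in hours.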

[2] = Chemical stability assessment (UPLC-UV, relative purity loss); format: physicochemical; details: 1 mg/ml, 25 mM acetate buffer pH 4.5 with m-cresol (buffer system A)
Procedure, shortened: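 Peptide at 1 mg/mL (purity-corrected) in 25 mM acetate pH 4.5 with methionine, m-cresol and glycerol, sterile-filtered, stored 28 days at 40° C. Purity measured by UPLC-UV as peptide peak area fraction at start and after storage; value is relative percent purity loss.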

[3] = test system: female, diabetic db/db mice; assay: Acute effects after subcutaneous treatment on blood glucose in non-fasting diabetic db/db mice; format: in vivo, mouse
Procedure: Female healthy, lean BKS.Cg-(lean)/OlaHsd and diabetes-prone, obese BKS.Cg-+Lepr^db/+Lepr^db/OlaHsd mice were ordered group housed from Envigo RMS Inc., shipped group housed and remained group housed in shoebox caging with wood chip bedding until day 15 of the predose phase. At the study start mice were approximately 12 weeks old.
Mice were housed under vivarium conditions including a 12 h light/dark cycle (light phase 04:00 AM-4:00 PM), room temperatures between 23-26° C. and a relative humidity between 30-70%. All animals had free access to water and Purina Fomulab Diet 5008.
On predose day 9 blood glucose and body mass (approximately between 08:00-10:00 AM) as well as HbA1c measurements were performed. On day 15 of the predose phase animals were assigned to treatment groups (n=8) and to new cages to match mean HbA1c and body masses between all db/db groups. An age-matched lean group was included in the study as a healthy, lean reference.
Prior to day 1 of the dosing phase, the test article was diluted with Phosphate Buffered Saline (PBS, Gibco, without CaCl2 and MgCl2) to a concentration of 1 mg/mL and aliquots of this stock solution were stored at approximately −60° C. On day 1 of the dosing phase the stock aliquot was thawed and the injected test article solution was prepared fresh by diluting it with PBS to achieve the desired concentration.
On Day 1 of the dosing phase db/db mice were either treated once with a s.c. injection of PBS-vehicle or 30 μg/kg test article. The lean reference group was treated once with a s.c. injection of PBS-vehicle. The dosing was initiated and completed between 08:00 and 10:00 AM. The applied volume was 5 ml/kg and the dose was adjusted to the most recent body mass recording of each individual.
Animals had unlimited access to water and feed during the experiment. On day 1 of the dosing phase approximately 5 μL of blood were collected via tail clips at minute −30 and 0 prior to any other inlife activities. At minute 0 mice received a s.c. dose of either PBS-vehicle or 30 μg/kg test article. Further blood samples were harvested at hour 0.25, 0.5, 1, 1.5, 2, 3, 4, 6, 8, and 24 post-dose. Glucose measurements were performed in whole blood using AlphaTRAK glucometers. If the glucose concentrations of two measurements differed by more than 20 mg/dL a third value was recorded. The Area Under the Curve (AUC) for blood glucose was calculated via the trapezoid method and for the duration of the 24 post-dose hours.
Data are depicted as means±SEM. […] A One-Way ANOVA and Tukey Test were used for pairwise multiple comparisons of all groups (n=8/group, deviations from group size are indicated). […] Data from a Non-Diabetic-Vehicle group serve as a reference dataset for the normoglycemic, lean state.
Female, 12 weeks old, healthy, lean BKS.Cg-(lean)/OlaHsd or diabetes-prone, obese BKS.Cg-+Leprdb/+Leprdb/OlaHsd mice were treated once with a s.c. injection of PBS, 30 μg/kg SEQ ID NO: 6 or 30 μg/kg SEQ ID NO: 7. The dosing was initiated and completed between 08:00 and 10:00 AM. The applied volume was 5 ml/kg and the dose was adjusted to the most recent body mass recording of each individual. Diabetic db/db mice were HbA1c- and body mass-matched. The lean reference group was treated once with a s.c. injection of PBS-vehicle.
Animals had unlimited access to water and feed during the experiment. On day 1 of the dosing phase approximately 5 μL of blood were collected via tail clips at minute −30 and 0 prior to any other inlife activities. At minute 0 mice received a s.c. dose of either PBS-vehicle, 30 μg/kg SEQ ID NO: 6 or SEQ ID NO: 7. Further blood samples were harvested at minute 15, 30, 60, 90, 120, 150, 180, 240, 360, and 480 post-dose. Glucose measurements were performed in whole blood using AlphaTRAK glucometers. If the glucose concentrations of two measurements differed by more than 20 mg/dL a third value was recorded. […]

CCCCCCCCCCCCCCCC(=O)N[C@@H](CCC(=O)N[C@@H](CCC(=O)NCCCC[C@H](NC(=O)[C@H](CC(C)C)NC(=O)[C@H](CCCCN)NC(=O)[C@H](CO)NC(=O)[C@H](CC(C)C)NC(=O)[C@H](CC(=O)O)NC(=O)[C@H](CO)NC(=O)[C@@H](NC(=O)[C@H](Cc1ccccc1)NC(=O)[C@@H](NC(=O)CNC(=O)[C@H](CCC(N)=O)NC(=O)C(C)(C)NC(=O)[C@@H](N)Cc1c[nH]cn1)[C@@H](C)O)[C@@H](C)O)C(=O)N[C@@H](CCC(=O)O)C(=O)N[C@@H](CCCCN)C(=O)N[C@@H](CCC(N)=O)C(=O)N[C@@H](CCCNC(=N)N)C(=O)N[C@@H](CCC(N)=O)C(=O)NC(C)(C)C(=O)N[C@@H](CCC(=O)O)C(=O)N[C@@H](Cc1ccccc1)C(=O)N[C@H](C(=O)N[C@@H](CCC(=O)O)C(=O)N[C@@H](Cc1c[nH]c2ccccc12)C(=O)N[C@@H](CC(C)C)C(=O)N[C@@H](CCCCN)C(=O)N[C@@H](C)C(=O)NCC(=O)NCC(=O)N1CCC[C@H]1C(=O)N1CCC[C@H]1C(=O)N[C@@H](CO)C(=O)NC(C)(C)C(=O)N[C@@H](CCCCN)C(=O)N1CCC[C@H]1C(=O)N1CCC[C@H]1C(=O)N1CCC[C@H]1C(=O)N[C@@H](CCCCN)C(N)=O)[C@@H](C)CC)C(=O)O)C(=O)O [SEQ ID NO: 6, H-Aib-Q-G-T-F-T-S-D-L-S-K-L-K[gGlu-gGlu-Palm]-E-K-Q-R-Q-Aib-E-F-I-E-W-L-K-A-G-G-P-P-S-Aib-K-P-P-P-K-NH2]
Lag time before increase [1]: >45 h
Chemical stability [relative purity loss 28 days 40° C.] (%) at pH 4.5 [2]: 6.9%
Blood glucose AUC compared to the Diabetic-Vehicle group ([3]; 30 μg/kg s.c. once, 24 h, in words): statistically significant reduction in the blood glucose AUC
Time post dose at which lowest blood glucose levels were reached ([3]; 30 μg/kg s.c. once, fed db/db mice): approximately 8 hours
Blood glucose profile following single treatment ([3]; 30 μg/kg s.c. once, fed db/db mice, in words): acute decrease in blood glucose concentrations
Plasma glucose area under the curve (mmol/L in 24 h) ([3]; Table 10, once 30 μg/kg s.c., fed db/db mice, mean ± SEM): +430.70 ± 26.41 mmol/L in 24 h

CCCCCCCCCCCCCCCC(=O)N[C@@H](CCC(=O)N[C@@H](CCC(=O)NCCCC[C@H](NC(=O)[C@H](CC(C)C)NC(=O)[C@H](CCCCN)NC(=O)[C@H](CO)NC(=O)[C@H](CC(C)C)NC(=O)[C@H](CC(=O)O)NC(=O)[C@H](CO)NC(=O)[C@@H](NC(=O)[C@H](Cc1ccccc1)NC(=O)[C@@H](NC(=O)CNC(=O)[C@H](CCC(N)=O)NC(=O)C(C)(C)NC(=O)[C@@H](N)Cc1c[nH]cn1)[C@@H](C)O)[C@@H](C)O)C(=O)N[C@@H](CCC(=O)O)C(=O)N[C@@H](CCC(=O)O)C(=O)N[C@@H](CCC(N)=O)C(=O)N[C@@H](CCCNC(=N)N)C(=O)N[C@@H](CCC(N)=O)C(=O)NC(C)(C)C(=O)N[C@@H](CCC(=O)O)C(=O)N[C@@H](Cc1ccccc1)C(=O)N[C@H](C(=O)N[C@@H](CCC(=O)O)C(=O)N[C@@H](Cc1c[nH]c2ccccc12)C(=O)N[C@@H](CC(C)C)C(=O)N[C@@H](CCCCN)C(=O)N[C@@H](C)C(=O)NCC(=O)NCC(=O)N[C@@H](Cc1c[nH]cn1)C(=O)N1CCC[C@H]1C(=O)N[C@@H](CO)C(=O)NC(C)(C)C(=O)N[C@@H](CCCCN)C(=O)N1CCC[C@H]1C(=O)N1CCC[C@H]1C(=O)N1CCC[C@H]1C(=O)N[C@@H](CCCCN)C(N)=O)[C@@H](C)CC)C(=O)O)C(=O)O [SEQ ID NO: 8, H-Aib-Q-G-T-F-T-S-D-L-S-K-L-K[gGlu-gGlu-Palm]-E-E-Q-R-Q-Aib-E-F-I-E-W-L-K-A-G-G-H-P-S-Aib-K-P-P-P-K-NH2]
Lag time before increase [1]: >45 h
Chemical stability [relative purity loss 28 days 40° C.] (%) at pH 4.5 [2]: 7.6%

CCCCCCCCCCCCCCCC(=O)N[C@@H](CCC(=O)N[C@@H](CCC(=O)NCCCC[C@H](NC(=O)[C@H](CC(C)C)NC(=O)[C@H](CCCCN)NC(=O)[C@H](CO)NC(=O)[C@H](CC(C)C)NC(=O)[C@H](CC(=O)O)NC(=O)[C@H](CO)NC(=O)[C@@H](NC(=O)[C@H](Cc1ccccc1)NC(=O)[C@@H](NC(=O)CNC(=O)[C@H](CCC(N)=O)NC(=O)C(C)(C)NC(=O)[C@@H](N)Cc1c[nH]cn1)[C@@H](C)O)[C@@H](C)O)C(=O)N[C@@H](CCC(=O)O)C(=O)N[C@@H](CCC(=O)O)C(=O)N[C@@H](CCC(N)=O)C(=O)N[C@@H](CCCNC(=N)N)C(=O)N[C@@H](CCC(N)=O)C(=O)NC(C)(C)C(=O)N[C@@H](CCC(=O)O)C(=O)N[C@@H](Cc1ccccc1)C(=O)N[C@H](C(=O)N[C@@H](CCC(=O)O)C(=O)N[C@@H](Cc1c[nH]c2ccccc12)C(=O)N[C@@H](CC(C)C)C(=O)N[C@@H](CCCCN)C(=O)N[C@@H](C)C(=O)NCC(=O)NCC(=O)N1CCC[C@H]1C(=O)N1CCC[C@H]1C(=O)N[C@@H](CO)C(=O)NC(C)(C)C(=O)N[C@@H](CCCCN)C(=O)N1CCC[C@H]1C(=O)N1CCC[C@H]1C(=O)N1CCC[C@H]1C(=O)N[C@@H](CCCCN)C(N)=O)[C@@H](C)CC)C(=O)O)C(=O)O [SEQ ID NO: 9, H-Aib-Q-G-T-F-T-S-D-L-S-K-L-K[gGlu-gGlu-Palm]-E-E-Q-R-Q-Aib-E-F-I-E-W-L-K-A-G-G-P-P-S-Aib-K-P-P-P-K-NH2]
Lag time before increase [1]: >45 h
Chemical stability [relative purity loss 28 days 40° C.] (%) at pH 4.5 [2]: 8.7%

CCCCCCCCCCCCCCCC(=O)N[C@@H](CCC(=O)N[C@@H](CCC(=O)NCCCC[C@H](NC(=O)[C@H](CC(C)C)NC(=O)[C@H](CCCCN)NC(=O)[C@H](CO)NC(=O)[C@H](CC(C)C)NC(=O)[C@H](CC(=O)O)NC(=O)[C@H](CO)NC(=O)[C@@H](NC(=O)[C@H](Cc1ccccc1)NC(=O)[C@@H](NC(=O)CNC(=O)[C@H](CCC(N)=O)NC(=O)C(C)(C)NC(=O)[C@@H](N)Cc1c[nH]cn1)[C@@H](C)O)[C@@H](C)O)C(=O)N[C@@H](CCC(=O)O)C(=O)N[C@@H](CCC(=O)O)C(=O)N[C@@H](CCC(N)=O)C(=O)N[C@@H](CCCNC(=N)N)C(=O)N[C@@H](CCC(N)=O)C(=O)NC(C)(C)C(=O)N[C@@H](CCC(=O)O)C(=O)N[C@@H](Cc1ccccc1)C(=O)N[C@H](C(=O)N[C@@H](CCC(=O)O)C(=O)N[C@@H](Cc1c[nH]c2ccccc12)C(=O)N[C@@H](CC(C)C)C(=O)N[C@@H](CCCCN)C(=O)N[C@@H](C)C(=O)N[C@H](C)C(=O)NCC(=O)N1CCC[C@H]1C(=O)N1CCC[C@H]1C(=O)N[C@@H](CO)C(=O)NC(C)(C)C(=O)N[C@@H](CCCCN)C(=O)N1CCC[C@H]1C(=O)N1CCC[C@H]1C(=O)N1CCC[C@H]1C(=O)N[C@@H](CCCCN)C(N)=O)[C@@H](C)CC)C(=O)O)C(=O)O [SEQ ID NO: 10, H-Aib-Q-G-T-F-T-S-D-L-S-K-L-K[gGlu-gGlu-Palm]-E-E-Q-R-Q-Aib-E-F-I-E-W-L-K-A-dAla-G-P-P-S-Aib-K-P-P-P-K-NH2] (H-H[Aib]QGTFTSDLSKLK([γGlu-γGlu-Palmitoyl])EEQRQ[Aib]EFIEWLKA[dA]GPPS[Aib]KPPPK-NH2)
Lag time before increase [1]: >45 h
Chemical stability [relative purity loss 28 days 40° C.] (%) at pH 4.5 [2]: 7.4%
